According to US11583511B2, “Maresins for use in the treatment of CNS injuries” (UNIVERSITAT AUTONOMA DE BARCELONA, priority 2017, dated 2023):

Legend:
[1] = test system: cytokines and chemokines in the contused spinal cord; assay: Cytokine protein expression in contused spinal cord (Luminex); format: in vivo, C57BI/6 mice
Method: (§1) All surgical procedures were approved by the Universitat Autònoma de Barcelona Animal Care Committee and followed the guidelines of the European Commission on Animal Care, and the methods for each procedure were carried out in accordance with the approved guidelines. 142 Adult (8 to 10 weeks old) female C57BI/6 mice (Charles River) were anesthetized with ketamine:xylazine (90:10 mg/kg). After performing a laminectomy at the 11th thoracic vertebrae, the exposed spinal cord was contused using the Infinite Horizon Impactor device (Precision Scientific Instrumentation, Lexington, Ky.). Injuries were made using a force of 60 kdynes and tissue displacement ranging between 500-700 μm as reported earlier (Coll-Miro et al., 2016).
(§2) One hour after spinal cord injury, 1 μg of MaR1 (7S,14S-dihydroxy-4Z,8E,10E,12Z,16Z, 19Z-docosahexaenoic acid; Cayman Chemical) was injected intravenously in 100 μl of sterile saline, and then repeated daily thereafter until day 7. Control mice were injected with an equal volume of sterile saline following the same injection protocol. Precautions with regards to the handling of lipid mediators to prevent inactivity due to oxygenation were implemented. The MaR1 dosage was chosen accordingly to be above levels i) of approved MaR1 bioactivity in experimental disease models (Serhan et al., 2015) and ii) above SPM dosages sufficient to exert bioactivity in the CNS with intact and closed blood brain barrier (Marcheselli et al., 2003; Svensson et al., 2007).
Mice treated with saline or MaR1 were perfused with sterile saline and a 5 mm length of spinal cord centered on the lesion was collected at 12 and 24 h after contusion injury and snap-frozen. Spinal cords were homogenized and protein concentration was determined using the DC Protein Assay (Bio-Rad). Samples were concentrated to 4 μg/μl using MicroCon centrifugation filters (Millipore) to ensure equal amounts of protein. Low concentrations of cytokines in the sample result in binding to the filters whereas high concentrations of protein sustain less losses. The protein levels of 32 cytokines and chemokines were then analyzed using the Milliplex MAP Mouse Cytokine/Chemokine magnetic bead panel (Millipore) on a Luminex (Millipore) as per manufacturers' protocol (Francos-Quijorna et al., 2016).

[2] = test system: macrophages (CD45high, CD11b+, F4/80+); assay: Efferocytosis: neutrophil marker Ly6G inside macrophages after SCI; format: in vivo, C57BI/6 mice; settings: 7 days post-lesion; vs saline
Method: as §1, with “Injuries were made using a force of 60 kdynes and tissue displacement ranging between 500-700 μm as reported earlier (Coll-Miro et al., 2016).” left out
Immune cells from the laminectomized and injured spinal cord were analyzed by flow cytometry at 1, 3, 7, 14, 21 and 28 days post-injury as described previously to study the dynamics of immune cell in spinal cord injury as described previously (Santos-Nogueira et al., 2015; Coll-Miro et al., 2016; Francos-Quijorna et al., 2016). […] After cell counts, samples were divided, and cells alone and isotype-matched control samples were generated to control for nonspecific binding of antibodies and for auto-fluorescence. […] Analysis of inflammatory cell kinetics at the lesion site was conducted applying objective and quantifiable measures of resolution dynamics as described previously (Pruss et al., 2011). […]

[3] = test system: spinal cord contusion injury; assay: Functional assessment of locomotor recovery after SCI (BMS, DigiGait, treadmill); format: in vivo, C57BI/6 mice
Method: as §1, §2
Locomotor recovery was evaluated at 1, 3, 5, 7, 10, 14, 21 and 28 dpi in an open-field test using the nine-point Basso Mouse Scale (BMS) (Basso et al., 2006), which was specifically developed for locomotor testing after contusion injuries in mice. The BMS analysis of hindlimb movements and coordination was performed by two independent assessors blinded for the treatment groups (MaR1 vs saline) and the consensus score taken. […] Moreover, the highest locomotion speed that each mouse was to able locomote for at least 5 seconds was also recorded on the DigiGait treadmill belt. […]

[4] = test system: STAT, MAPK, NF-κB and PI3K/Akt signaling; assay: Western blotting of inflammatory signaling pathways in contused spinal cord; format: in vivo, C57BI/6 mice; settings: vs saline
Method: as §1, §2
Samples used for Luminex assay, were also used to for western blotting. Protein samples (30 μg) were separated by electrophoresis on a 10-15% polyacrylamide gel and transferred onto PVDF membranes (Millipore). The membranes were incubated overnight at 4° C. with rabbit antibodies against phospho NF-kB p65 (1:1000; Cell Signaling), against the phosphorylated form of STAT1 (1:500; Cell Signaling), STAT3 (1:500; Cell Signaling), STAT5 (1:500; Cell Signaling) and STAT6 (1:500; Cell Signaling), JNK (1:500; Santa Cruz), ERK1/2 (1:1000; Cell Signaling), p38 (1:1000; Cell Signaling) and AKT (1:1000; Cell Signaling). Bands were detected using Chemiluminescence (Immobilon Western Chemiluminescence HRP reagent, Millipore) and data quantified by densitometry using Workflow v3 software in a Chemidoc apparatus (Millipore). ß-actin (1:10.000; Sigma Aldrich) was used to ensure equal loading of samples.

[5] = test system: spinal cord contusion injury; assay: Histology of secondary tissue damage after SCI; format: in vivo, C57BI/6 mice; settings: 28 days post-injury, vs saline
Method: as §1, §2
At 28 days post-injury, mice were perfused with 4% paraformaldehyde in 0.1M-phosphate buffer (PB). A 5 mm length of spinal cord containing the lesion site was removed, cryoprotected with 30% sucrose in 0.1M PB at 4° C., and 10 series of 10 μm thick section were picked up on glass slides. Adjacent sections on the same slide were therefore 100 μm apart. For quantification of myelin area content in the spinal cord analyses, sections were stained with Luxol Fast Blue (Sigma). […]
The epicenter of the injection or contusion injury impact was determined for each mouse spinal cord by localizing the tissue section with the greatest damage using LFB stained section. Myelin content after SCI was calculated by delineating the are of LFB stained tissue. Neuronal survival was assessed by counting the number of NeuN^+ cells in the ventral horns at the injury epicenter and at rostral and caudal areas. Axonal sparing was calculated by counting the number of axons in the dorsal column at the injury epicenter, the region of most pronounced damage. […] All quantifications were performed blinded to the experimental groups with the help of the ImageJ image analysis software.

[6] = test system: macrophages and microglia (Ly6C, iNOS, Arg1); assay: Flow cytometry of macrophage and microglia phenotype after SCI; format: in vivo, C57BI/6 mice
Method: as §1, §2
(§3) Immune cells from the laminectomized and injured spinal cord were analyzed by flow cytometry at 1, 3, 7, 14, 21 and 28 days post-injury as described previously to study the dynamics of immune cell in spinal cord injury as described previously (Santos-Nogueira et al., 2015; Coll-Miro et al., 2016; Francos-Quijorna et al., 2016). Similarly, spinal cord from mice treated with MaR1 or saline were also harvested at day 1, 3 and 7 post-lesion. Briefly, spinal cords were cut in little pieces and passed through a cell strainer of 70 μm (BD falcon) and the cell suspension was centrifuged twice at 300 g for 10 minutes at 4° C. After cell counts, samples were divided, and cells alone and isotype-matched control samples were generated to control for nonspecific binding of antibodies and for auto-fluorescence. The following antibodies from eBioscience were used at 1:250 concentration: CD45-PerCP, CD11b-PE-Cy7, Ly6C-FITC, Ly6G-PE, Gr1-FITC, F4/80-APC or PE, CD3-FITC, CD4-APC, CD8-APC, CD19-PE, CD206-FITC, CD16/32-PE. After 30 min of incubation with combinations of antibodies at 4° C., cells were then fixed in 1% paraformaldehyde. For intracellular staining, cells were permeabilized with Permeabilization Wash Buffer (Biolegend), incubated with unconjugated rabbit antibodies against iNOS (1:200 Abcam), and goat antibodies against Arg1 (1:200; Santa Cruz) for 30 minutes, followed by staining with Alexa488 or Alexa647 conjugated donkey secondary antibodies against rabbit or goat (1:500 Molecular Probes) for 30 min. Finally, samples were washed and fixed in 1% paraformaldehyde. To perform the analysis, cells were first gated for CD45 to ensure that only infiltrating leukocytes and resident microglia are selected. Then, the following combination of markers were used to identify: microglia (CD45^low, CD11b^+, F4/80^+); macrophages (CD45^high, CD11b^+, F4/80^+); neutrophils (CD45^high, CD11b^+, F4/80^−, Gr1^high); CD4 T-Cells (CD45^+, CD11b^−, CD3^+, CD4^+); CD8 T Cells (CD45^+, CD11b, CD3^+, CD8^+); B cell (CD45^+, CD11b^−, CD3^−, CD19^+). To study the phenotype of microglia and macrophages, these cells were further differentiated based on Ly6C, CD16/32, iNOS, CD206 and Arg1 expression (Coll-Miro et al., 2016; Francos-Quijorna et al., 2016). Analysis of inflammatory cell kinetics at the lesion site was conducted applying objective and quantifiable measures of resolution dynamics as described previously (Pruss et al., 2011). […]

[7] = test system: neutrophils, macrophages and microglia in the contused spinal cord; assay: Flow cytometry of immune cell counts in contused spinal cord after MaR1 treatment; format: in vivo, C57BI/6 mice; settings: vs saline
Method: as §1, §2, §3

[8] = test system: human macrophages; settings: 1 nM concentration; cited from earlier work
[9] = contused spinal cord, 24 h after SCI, MaR1 1 μg i.v., mean ± SEM
[10] = spinal cord tissue 24 hours after SCI

Structure (SMILES): CC/C=C\C/C=C\C[C@H](O)\C=C/C=C/C=C/[C@@H](O)C/C=C\CCC(=O)O [MaR1, 7S,14S-dihydroxy-4Z,8E,10E,12Z,16Z, 19Z-docosahexaenoic acid]
- protein levels of the anti inflammatory cytokine IL-10 ([1]; after SCI, vs saline): did not reduce
- CCL3 protein level [1, 9]: 13.3 ± 1.18
- CCL4 protein level [1, 9]: 17.7 ± 1.46
- CSF3 protein level [1, 9]: 741 ± 118
- CXCL1 protein level [1, 9]: 87.5 ± 21.3
- CXCL2 protein level [1, 9]: 41.4 ± 7.50
- IL-6 protein level [1, 9]: 291 ± 56.7
- IL-4 protein levels ([1]; injured spinal cord, both groups): undetected
- increase of neutrophil marker Ly6G inside macrophages (neutrophil phagocytosis) [2]: ~2 fold
- BMS score ([3]; 28 dpi, nine-point Basso Mouse Scale, 1 μg MaR1 i.v. daily until day 7): 4.58±0.22
- DigiGait gait symmetry and stance/width stepping variability ([3]; day 28 post-injury, vs saline): improved
- speed of locomotion on the treadmill ([3]; day 28 post-injury, vs saline): significantly faster
- ERK1/2 activation ([4]; 24 hours post-injury): attenuated
- JKN activation ([4]; 24 hours post-injury): remained unaltered
- STAT1 activation ([4]; 24 hours post-injury): attenuated
- STAT3 activation ([4]; 24 hours post-injury): attenuated
- STAT5 activation ([4]; 24 hours post-injury): attenuated
- STAT6 activation ([4]; 24 hours post-injury): remained unaltered
- p38 activation ([4]; 24 hours post-injury): attenuated
- pAkt level [4, 10]: not affected
- pP65 level [4, 10]: not affected
- neuronal survival in the ventral horn ([5]; caudal regions to the injury epicenter): improved
- myelin content (LFB) ([5]; injury epicenter and 200 μm rostral and caudal): increased
- axonal sparing (NF+) in the dorsal columns ([5]; injury epicenter): enhanced
- demyelination (NF/MBP+) in the dorsal columns ([5]; injury epicenter): reduced
- percent of Ly6Chigh microglia ([6]; 7 days after SCI): 10.6%±1.1
- ratio LyC6low/LyC6high macrophages ([6]; 7 days after SCI, p=0.0036 vs saline): 3.73±0.26
- reduction of pro-inflammatory macrophages (Ly6Chigh) ([6]; 7 days after SCI, vs saline): ~50%
- increase of Arg-1 expression in macrophages ([6]; 7 days post injury, did not reach statistical significance): ~2 fold
- iNOS expression in microglia ([6]; 7 days post injury, not statistically significant): tended to reduce
- iNOS expression in macrophages ([6]; 7 days post injury, vs saline): significantly reduced
- clearance of neutrophils from the contused spinal cord (Ri and T50) ([7]; 1 μg MaR1 i.v. daily for 7 days): accelerated
- entrance of blood-borne macrophages into the contused spinal cord ([7]; day 1): not different
- neutrophil counts in contused spinal cord ([7]; day 1 post-injury, 1 μg MaR1 i.v. daily from 1 hour after SCI): unaltered
- macrophage counts in the contused spinal cord ([7]; day 3 post-injury, not significant): tended to be reduced
- reduction of neutrophil counts in the injured spinal cord ([7]; day 7, 1 μg MaR1 i.v. daily): ~50%
- macrophage accumulation in the lesioned spinal cord ([7]; day 7 post-lesion): significantly reduced
- microglial numbers in the contused spinal cord ([7]; first week following contusion injury): did not attenuate
- efferocytosis by human macrophages compared with RvD1 [8]: greater efferocytosis
